System: B10-mdx mice
Experiment: Four-limb grip strength (Study 2)
Assay type: in vivo, mouse
Details: 4 weeks of treatment, not complete, not dose dependent
Method: After 4 weeks of treatment, muscle strength was evaluated using a grip strength meter.
Study 2: The goal of the second study was to evaluate corticosteroid side effects and efficacy in a longer study (4 months). After 28 days of dosing, mice were tested for depression-like behavior using a measure of corticosteroid-induced depression (FST followed by TST). Muscle function was tested via grip strength. Tests for depression and for grip-strength were done in a blinded manner. After 4 months, mice were euthanized, and tissues were collected. Bone from whole left leg was collected for micro-CT analysis. The number of animals per group was as follows: WT, n = 16; B10-mdx, n = 15; corticosteroid-treated groups, n = 8–10.
A four-limb grip strength meter from Bioseb was used to determine the maximal peak force (g) developed by the mouse when the examiner tried to pull it out of a specially designed grid for mice (Bioseb, BIO-GS3 & BIO-GRIPGS). The examiner was blinded, and a total of 5 measurements were applied to each mouse, 1–2 min between measurements. The average of the 5 values was used for subsequent calculations.

CC(=O)OCC(=O)[C@@]12N=C(C)O[C@@H]1C[C@H]1[C@@H]3CCC4=CC(=O)C=C[C@]4(C)[C@H]3[C@@H](O)C[C@@]12C [Deflazacort]
grip strength: showed some protection from loss of grip strength

Source: PMC10800023 (Human Molecular Genetics, 2023)
